Laboratory results: patent US20230390234A1, “COMPOSITION INHIBITING MUSCLE LOSS OR PROMOTING MUSCLE FORMATION THROUGH SKIN-DERIVED EXOSOMES” (EX HEALTHCARE INC., priority 2021, published 2023)

Assays:
[1] = test system: miRNA-26a; assay: Level of miRNA-26a in exosomes isolated from treated fibroblasts (real-time qPCR); assay type: cell-based, human
Protocol: After treating the subcultured passage 27 FB with betaine for 48 hours, the medium was collected and centrifuged at 3000×g for 30 minutes. After centrifugation, only the supernatant was recovered and transferred to Ultra-15 Centrifugal Filter Units (Amicon, MERCK, C7715) and centrifuged at 4000×g for 40 minutes. Only the supernatant was recovered, Total Exosome Isolation Reagent (Invitrogen, Cat No #4478539) was added at ½ the volume of the supernatant, and the mixture was allowed to react at 4° C. overnight. The next day, after centrifugation at 10000×g for 1 hour, the supernatant was removed by suction, and then a final exosome pellet was re-suspended in PBS. The exosomes obtained in the present example are hereinafter referred to as “fibroblast-derived exosomes”.
2×10^6 FB cells were inoculated onto a 75 T flask, cultured for 24 hours, and then treated with betaine (0.1, 1 and 10 mM). After the cells were additionally cultured for 48 hours, exosomes were isolated by the method of Example 1-2, and microRNA (hereinafter described as miRNA) was extracted from the exosomes isolated from the culture medium using an RNeasy plus mini kit (Qiagen, Germany) according to the manufacturer's protocol.
Real-time qPCR was performed with a tagman probe targeting mature RNA. The relative expression level of the intracellular target miRNA was normalized with the expression level of RNU48, which is used as a housekeeping gene during miRNA quantification, and then shown as a relative %. The relative expression of miRNA-26a in exosomes was normalized with the expression of […], which is used as a housekeeping gene during quantification of miRNA in fibroblast exosomes, and then shown as a relative %. For all real-time qPCR analyses, an Applied Biosystems 7500 (Applied Biosystems) apparatus was used.
The FB was treated with the material shown in the following Table 1 to isolate exosomes in the same manner as in Example 1-1, and the level of miRNA-26a was confirmed in the exosomes by the method in Example 1-4.
Thereafter, after fibroblasts (FB) were treated with the Camellia japonica flower extract for 48 hours, exosomes were isolated by the method in Example 1-2. Furthermore, the level of miR-26a was confirmed in exosomes isolated from the culture medium by the method in Example 1-4. As a result of the confirmation, it could be confirmed that the level of miRNA-26a was increased in the exosomes isolated from the FB treated with the Camellia flower extract at a concentration of 50 ppm compared to the control which was an untreated group (FIG. 9).

[2] = test system: MURF1; assay: Muscle loss marker expression in differentiated C2C12 cells, qPCR; assay type: cell-based, mouse; conditions: differentiated C2C12, 48 hours; betaine 0.1 mM or exosomes about 20 μg/ml, FIG. 4A
Protocol: (§1) C2C12 cells were inoculated onto a 6-well plate at a concentration of 1.5×10^5 cells/well and cultured for 24 hours. Thereafter, the medium was exchanged with a medium supplemented with 2% horse serum, and the cells were further cultured for 72 hours to promote the differentiation of C2C12 cells. After the differentiation was completed, the cells were treated with betaine at 0.1 mM or fibroblast-derived exosomes (about 20 μg/ml) obtained in Example 1-2 and further cultured for 48 hours. Total RNA was extracted with an RNeasy plus mini kit and cDNA was synthesized with SuperScript™ III (Invitrogen, USA). Thereafter, qPCR was performed with a target gene taqman probe, and then analysis was performed.
(§2) C2C12 cells were inoculated onto a 6-well plate at a concentration of 1.5×10^5 cells/well and cultured for 24 hours. Thereafter, the medium was exchanged with a medium supplemented with 2% horse serum, and the cells were further cultured for 72 hours to promote the differentiation of C2C12 cells. After the differentiation was completed, the cells were treated with the Camellia japonica flower extract at 50 ppm or the exosomes (about 20 μg/ml) obtained in Example 4-1 and further cultured for 48 hours. Thereafter, the change in expression of the target gene was confirmed by qPCR by the method in Example 2-1.

[3] = test system: myostatin; assay: as above; assay type: cell-based, mouse; conditions: differentiated C2C12, 48 hours; betaine 0.1 mM or exosomes about 20 μg/ml, FIG. 4C
Protocol: as §1, §2

[4] = test system: C2C12 cells; assay: Cytotoxicity of betaine, CCK-8 cell viability in myofibroblasts; assay type: cell-based, mouse; conditions: betaine at different concentrations, 24 hours, CCK-8, FIG. 1B
Protocol: (§3) As human skin dermal cells, normal human dermal fibroblasts (NHDF, fibroblasts) isolated from adult samples were purchased from LONZA (Cat. CC-2511). As […], C2C12 cells, which are myoblasts isolated and cultured from C3H mice, were purchased from ATCC (CRL-1772).
(§4) Subcultured passage 27 human fibroblast HS68 (hereinafter referred to as FB) or C2C12 was inoculated onto a 96-well plate at a concentration of 1×10^4 cells/well and cultured in an incubator at 5% CO2 and 37° C. for 24 hours. After culturing, cells were treated with betaine at different concentrations and additionally cultured for 24 hours, and an untreated group was used as a control. After the cells were washed with PBS, the cells were additionally cultured with CCK-8 (DONGJIN, CK04-11) for 2 hours, and absorbance was measured at 450 nm using a microplate reader. From the measured results, relative cell viability according to the betaine treatment concentration was calculated by setting the value of the control to 100.

[5] = test system: human fibroblast HS68 (FB); assay: Cytotoxicity of betaine, CCK-8 cell viability in fibroblasts; assay type: cell-based; conditions: betaine at different concentrations, 24 hours, CCK-8, FIG. 1A
Protocol: as §3, §4

[6] = test system: MyoD; assay: Myogenesis marker expression in differentiated C2C12 cells, qPCR; assay type: cell-based, mouse; conditions: differentiated C2C12, 48 hours; betaine 0.1 mM or exosomes about 20 μg/ml, FIG. 5
Protocol: as §1

[7] = test system: atrogin-1; assay: Muscle loss marker expression in differentiated C2C12 cells, qPCR; assay type: cell-based, mouse; conditions: differentiated C2C12, 48 hours; betaine 0.1 mM or exosomes about 20 μg/ml, FIG. 4B
Protocol: as §1

[8] = test system: atrogin-1; assay: Muscle loss marker protein level in differentiated C2C12 cells, western blotting; assay type: cell-based, mouse; conditions: differentiated C2C12, 48 hours; betaine 0.1 or 0.5 mM or exosomes, FIG. 6
Protocol: (§5) C2C12 cells were inoculated onto a 6-well plate at a concentration of 5×10^5 cells/well and cultured for 24 hours. Thereafter, the medium was exchanged with a medium supplemented with 2% horse serum, and the cells were further cultured for 72 hours to promote the differentiation of C2C12 cells. After the differentiation was completed, the cells were treated with betaine (0.1 and 0.5 mM) or fibroblast-derived exosomes and further cultured for 48 hours. Thereafter, cells were lysed by adding a lysis buffer (1% NP40, 0.05 M Tris-HCl, pH 7.5, 0.15 M NaCl and 0.01 MgCl2) including a protease inhibitor to the C2C12 cells, and the concentration of proteins was measured by a […] (BCA) method. The quantified protein was separated with SDS-PAGE and transferred to a PVDF membrane, and the protein expression level of each muscle loss marker was confirmed with an antibody.

[9] = test system: MURF1; assay: as above; assay type: cell-based, mouse; conditions: differentiated C2C12, 48 hours; betaine 0.1 or 0.5 mM or exosomes, FIG. 6
Protocol: as §5

[10] = test system: myostatin; assay: as above; assay type: cell-based, mouse; conditions: differentiated C2C12, 48 hours; betaine 0.1 or 0.5 mM or exosomes, FIG. 6
Protocol: as §5

[11] = test system: MyoD; assay: Myogenesis marker protein level in differentiated C2C12 cells, western blotting; assay type: cell-based, mouse; conditions: differentiated C2C12, 48 hours; betaine 0.1 or 0.5 mM or exosomes, FIG. 7
Protocol: as §5

Compound: L-carnosine
- miRNA-26a level in exosomes, fold change (vs. control) ([1]; FB treated with 5 ppm (0.0005%)): 1.537 fold

Compound: O=C1C[C@@H](c2ccc(O)cc2)Oc2cc(O)cc(O)c21 [Naringenin]
- miRNA-26a level in exosomes, fold change (vs. control) ([1]; FB treated with 10 uM): 1.854 fold

Compound: Kojyl carboxy dipeptide-23
- miRNA-26a level in exosomes, fold change (vs. control) ([1]; FB treated with 10 ppm): 1.483 fold

Compound: Copper Tripeptide
- miRNA-26a level in exosomes, fold change (vs. control) ([1]; FB treated with 10 ppm): 1.743 fold

Compound: C[N+](C)(C)CC(=O)O [Betaine]
- expression of MURF1 (qPCR) vs. control [2]: slightly increased
- expression of myostatin (qPCR) vs. control [3]: almost the same level
- cell viability of C2C12 [4]: no change
- cell viability of FB [5]: no change
- expression of MyoD (qPCR) vs. control [6]: increased compared to the control, but was not at a significant level
- expression of atrogin-1 (qPCR) vs. control [7]: slightly increased
- miRNA-26a level in exosomes, fold change (vs. control) ([1]; FB treated with 1 mM): 1.821 fold
- level of miRNA-26a in exosomes vs. untreated control ([1]; FB treated with betaine 0.1, 1 and 10 mM, 48 hours, FIG. 3): increased
- protein expression of atrogin-1 (western blotting) [8]: no change
- protein expression of MURF1 (western blotting) [9]: no change
- protein expression of myostatin (western blotting) [10]: no change
- protein expression of MyoD (western blotting) [11]: unchanged

Compound: COc1ccc(-c2cc(=O)c3c(OC)c(OC)c(OC)c(OC)c3o2)cc1OC [Nobiletin]
- miRNA-26a level in exosomes, fold change (vs. control) ([1]; FB treated with 30 uM): 1.447 fold

Compound: Camelliaside A
- miRNA-26a level in exosomes, fold change (vs. control) ([1]; FB treated with 1 ppm): 1.956 fold

Compound: O=c1c(O)c(-c2cc(O)c(O)c(O)c2)oc2cc(O)cc(O)c12 [Myricetin]
- miRNA-26a level in exosomes, fold change (vs. control) ([1]; FB treated with 25 uM): 1.599 fold
